Converted amounts (≈) assume the structure as drawn.
Tests used:
Assay type in all cases: cell-based
Streptococcus pyogenes = assay: MIC against clinically isolated aerobic Gram-positive strains; conditions: 15 strains
[1] = test system: Pseudomonas aeruginosa 9027; assay: MIC against standard strains (agar dilution); conditions: standard strain Pseudomonas aeruginosa 9027, 37° C., 18 to 20 hours, read-out: Minimum Inhibitory Concentration (MIC)
Morganella morganii = assay: MIC against clinically isolated aerobic Gram-negative strains; conditions: 15 strains
[2] = test system: Pseudomonas aeruginosa 1592E; assay: MIC against standard strains (agar dilution); conditions: standard strain Pseudomonas aeruginosa 1592E, 37° C., 18 to 20 hours, read-out: Minimum Inhibitory Concentration (MIC)
[3] = test system: Staphylococcus aureus 503; assay: MIC against standard strains (agar dilution); conditions: standard strain Staphylococcus aureus 503, 37° C., 18 to 20 hours, read-out: Minimum Inhibitory Concentration (MIC)
[4] = test system: Pseudomonas aeruginosa 1771M; assay: MIC against standard strains (agar dilution); conditions: read-out: Minimum Inhibitory Concentration (MIC)
Enterococcus faecium = assay: MIC against clinically isolated aerobic Gram-positive strains; conditions: clinically isolated Enterococcus faecium, 29 strains; for MIC50: read-out: MIC50; for MIC90: read-out: MIC90
Klebsiella pneumoniae = assay: MIC against clinically isolated aerobic Gram-negative strains; conditions: 30 strains
Serratia marcescens = assay: as above; conditions: 14 strains
Moraxella catarrhalis = assay: as above; conditions: 24 strains
Pseudomonas aeruginosa = assay: as above; conditions: 60 strains
Staphylococcus coagulase = assay: MIC against clinically isolated aerobic Gram-positive strains; conditions: for MIC50 / MIC90: Staphylococcus; for MIC Range: clinically isolated Staphylococcus coagulase, 22 strains
Bacteroides spp. = assay: MIC against clinically isolated anaerobic Gram-negative strains; conditions: 11 strains
Proteus mirabilis = assay: MIC against clinically isolated aerobic Gram-negative strains; conditions: 15 strains
Enterococcus faecalis = assay: MIC against clinically isolated aerobic Gram-positive strains; conditions: 30 strains
[5] = test system: Methicillin-sensitive Staphylococcus aureus; assay: as above; conditions: 33 strains
Enterobacter cloacae P99 = assay: MIC against standard strains (agar dilution); conditions: standard strain Enterobacter cloacae P99, 37° C., 18 to 20 hours, read-out: Minimum Inhibitory Concentration (MIC)
Klebsiella cxytoca 1082E = assay: MIC against standard strains (agar dilution); conditions: standard strain Klebsiella cxytoca 1082E, 37° C., 18 to 20 hours, read-out: Minimum Inhibitory Concentration (MIC)
Citrobacter freundii = assay: MIC against clinically isolated aerobic Gram-negative strains; conditions: 14 strains
[6] = test system: Streptococcus pyogenes 308A; assay: MIC against standard strains (agar dilution); conditions: standard strain Streptococcus pyogenes 308A, 37° C., 18 to 20 hours, read-out: Minimum Inhibitory Concentration (MIC)
Bacteroides fragilis = assay: MIC against clinically isolated anaerobic Gram-negative strains; conditions: 34 strains
Escherichia coli DC 0 = assay: MIC against standard strains (agar dilution); conditions: DC0, standard strain Escherichia coli DC 0, 37° C., 18 to 20 hours, read-out: Minimum Inhibitory Concentration (MIC)
[7] = test system: Streptococcus pyogenes 77A; assay: MIC against standard strains (agar dilution); conditions: standard strain Streptococcus pyogenes 77A, 37° C., 18 to 20 hours, read-out: Minimum Inhibitory Concentration (MIC)
Streptococcus pneumoniae = assay: MIC against clinically isolated aerobic Gram-positive strains; conditions: 22 strains
Escherichia coli = assay: MIC against clinically isolated aerobic Gram-negative strains; conditions: 30 strains
Escherichia coli 078 = assay: MIC against standard strains (agar dilution); conditions: standard strain Escherichia coli 078, 37° C., 18 to 20 hours, read-out: Minimum Inhibitory Concentration (MIC)
[8] = test system: Streptococcus faecium MD 8b; assay: MIC against standard strains (agar dilution); conditions: Enterococcus faecium, MD8B, standard strain Streptococcus faecium MD 8b, 37° C., 18 to 20 hours, read-out: Minimum Inhibitory Concentration (MIC)
Salmonella typhimurium = assay: MIC against standard strains (agar dilution); conditions: Salmonella enterica, standard strain Salmonella typhimurium, 37° C., 18 to 20 hours, read-out: Minimum Inhibitory Concentration (MIC)
Escherichia coli TEM = assay: MIC against standard strains (agar dilution); conditions: standard strain Escherichia coli TEM, 37° C., 18 to 20 hours, read-out: Minimum Inhibitory Concentration (MIC)
Streptococcus agalactiae = assay: MIC against clinically isolated aerobic Gram-positive strains; conditions: 15 strains
Enterobacter cloacae = assay: MIC against clinically isolated aerobic Gram-negative strains; conditions: 29 strains

**Q.** Which results are given for `C[C@@H](O)[C@H]1C(=O)N2C(C(=O)O)=C(S[C@@H]3CN[C@H](/C=C/c4cc(C(=O)O)no4)C3)[C@H](C)[C@H]12` [Example, (1R,5S,6S,8R,3′S,5′S)-2-{5′-[(E)-2-(3-carboxylic acid or sodium carboxylate-5-isoxazolo)ethenyl]pyrrolidin-3′-ylthio}-6-(1-hydroxyethyl)-1-methylcarbapen-2-em-3-carboxylic acid]?
**A.** MIC50 (Streptococcus pyogenes): < 8 ng/mL; MIC90 (Streptococcus pyogenes): < 8 ng/mL; MIC Range (Streptococcus pyogenes): <8 ng/mL; MIC [1]: 0.098 µg/mL; MIC50 (Morganella morganii): 0.03 µg/mL; MIC90 (Morganella morganii): 0.06 µg/mL; MIC Range (Morganella morganii): 0.03 to 0.12 µg/mL; MIC [2]: 0.195 µg/mL; MIC [3]: 0.098 µg/mL; MIC [4]: 0.391 µg/mL; MIC Range (Enterococcus faecium): 16 to 128 µg/mL; MIC50 (Enterococcus faecium): 128 µg/mL; MIC90 (Enterococcus faecium): 128 µg/mL; MIC50 (Klebsiella pneumoniae): 0.03 µg/mL; MIC90 (Klebsiella pneumoniae): 0.12 µg/mL; MIC Range (Klebsiella pneumoniae): 0.015 to 0.25 µg/mL; MIC50 (Serratia marcescens): 0.03 µg/mL; MIC90 (Serratia marcescens): 16 µg/mL; MIC Range (Serratia marcescens): 0.03 to 16 µg/mL; MIC50 (Moraxella catarrhalis): 0.03 µg/mL; MIC90 (Moraxella catarrhalis): 0.06 µg/mL; MIC Range (Moraxella catarrhalis): 0.015 to 0.06 µg/mL; MIC50 (Pseudomonas aeruginosa): 4 µg/mL; MIC90 (Pseudomonas aeruginosa): 64 µg/mL; MIC Range (Pseudomonas aeruginosa): 0.06 to 128 µg/mL; MIC50 (Staphylococcus coagulase): 0.12 µg/mL; MIC90 (Staphylococcus coagulase): 0.25 µg/mL; MIC Range (Staphylococcus coagulase): 0.06 to 0.5 µg/mL; MIC50 (Bacteroides spp.): 1 µg/mL; MIC90 (Bacteroides spp.): 1 µg/mL; MIC Range (Bacteroides spp.): 1 to 2 µg/mL; MIC50 (Proteus mirabilis): 0.03 µg/mL; MIC90 (Proteus mirabilis): 0.06 µg/mL; MIC Range (Proteus mirabilis): 0.015 to 0.06 µg/mL; MIC50 (Enterococcus faecalis): 8 µg/mL; MIC90 (Enterococcus faecalis): 32 µg/mL; MIC Range (Enterococcus faecalis): 4 to 32 µg/mL; MIC50 [5]: 0.12 µg/mL; MIC90 [5]: 0.12 µg/mL; MIC Range [5]: 0.06 to 0.12 µg/mL; MIC (Enterobacter cloacae P99): 0.098 µg/mL; MIC (Klebsiella cxytoca 1082E): 0.049 µg/mL; MIC50 (Citrobacter freundii): 0.03 µg/mL; MIC90 (Citrobacter freundii): 0.12 µg/mL; MIC Range (Citrobacter freundii): 0.015 to 0.25 µg/mL; MIC [6]: 0.049 µg/mL; MIC50 (Bacteroides fragilis): 0.5 µg/mL; MIC90 (Bacteroides fragilis): 1 µg/mL; MIC Range (Bacteroides fragilis): 0.25 to 4 µg/mL; MIC (Escherichia coli DC 0): 0.025 µg/mL; MIC [7]: 0.049 µg/mL; MIC50 (Streptococcus pneumoniae): 0.008 µg/mL; MIC90 (Streptococcus pneumoniae): 0.12 µg/mL; MIC Range (Streptococcus pneumoniae): 8 to 250 ng/mL; MIC50 (Escherichia coli): 0.03 µg/mL; MIC90 (Escherichia coli): 0.25 µg/mL; MIC Range (Escherichia coli): 0.008 to 2 µg/mL; MIC (Escherichia coli 078): 0.025 µg/mL; MIC [8]: 12.5 µg/mL; MIC (Salmonella typhimurium): 0.049 µg/mL; MIC (Escherichia coli TEM): 0.025 µg/mL; MIC50 (Streptococcus agalactiae): 8 ng/mL; MIC90 (Streptococcus agalactiae): 0.015 µg/mL; MIC Range (Streptococcus agalactiae): 8 to 15 ng/mL; MIC50 (Enterobacter cloacae): 0.12 µg/mL; MIC90 (Enterobacter cloacae): 0.5 µg/mL; MIC Range (Enterobacter cloacae): 0.015 to 2 µg/mL

**Q.** Which results are given for `C[C@@H](O)[C@H]1C(=O)N2C(C(=O)O)=C(SCCN=CN)C[C@H]12` [IPM, Imipenem]?
**A.** MIC50 (Streptococcus pyogenes): < 8 ng/mL; MIC90 (Streptococcus pyogenes): < 8 ng/mL; MIC Range (Streptococcus pyogenes): <8 ng/mL; MIC [1]: 0.391 µg/mL (≈ 1.31 µM); MIC50 (Morganella morganii): 1 µg/mL (≈ 3.34 µM); MIC90 (Morganella morganii): 2 µg/mL (≈ 6.68 µM); MIC Range (Morganella morganii): 0.5 to 2 µg/mL; MIC [2]: 0.781 µg/mL (≈ 2.61 µM); MIC [3]: 0.007 µg/mL (≈ 0.0234 µM); MIC [4]: 0.195 µg/mL (≈ 0.651 µM); MIC Range (Enterococcus faecium): 2 to 128 µg/mL; MIC50 (Enterococcus faecium): 128 µg/mL (≈ 428 µM); MIC90 (Enterococcus faecium): 128 µg/mL (≈ 428 µM); MIC50 (Klebsiella pneumoniae): 0.12 µg/mL (≈ 0.401 µM); MIC90 (Klebsiella pneumoniae): 0.5 µg/mL (≈ 1.67 µM); MIC Range (Klebsiella pneumoniae): 0.06 to 1 µg/mL; MIC50 (Serratia marcescens): 0.25 µg/mL (≈ 0.835 µM); MIC90 (Serratia marcescens): 2 µg/mL (≈ 6.68 µM); MIC Range (Serratia marcescens): 0.12 to 4 µg/mL; MIC50 (Moraxella catarrhalis): 0.06 µg/mL (≈ 0.2 µM); MIC90 (Moraxella catarrhalis): 0.06 µg/mL (≈ 0.2 µM); MIC Range (Moraxella catarrhalis): 0.008 to 0.25 µg/mL; MIC50 (Pseudomonas aeruginosa): 2 µg/mL (≈ 6.68 µM); MIC90 (Pseudomonas aeruginosa): 16 µg/mL (≈ 53.4 µM); MIC Range (Pseudomonas aeruginosa): 0.5 to 128 µg/mL; MIC50 (Staphylococcus coagulase): 0.015 µg/mL (≈ 0.0501 µM); MIC90 (Staphylococcus coagulase): 0.015 µg/mL (≈ 0.0501 µM); MIC Range (Staphylococcus coagulase): 0.008 to 0.03 µg/mL; MIC50 (Bacteroides spp.): 0.5 µg/mL (≈ 1.67 µM); MIC90 (Bacteroides spp.): 1 µg/mL (≈ 3.34 µM); MIC Range (Bacteroides spp.): 0.25 to 2 µg/mL; MIC50 (Proteus mirabilis): 2 µg/mL (≈ 6.68 µM); MIC90 (Proteus mirabilis): 2 µg/mL (≈ 6.68 µM); MIC Range (Proteus mirabilis): 0.25 to 4 µg/mL; MIC50 (Enterococcus faecalis): 1 µg/mL (≈ 3.34 µM); MIC90 (Enterococcus faecalis): 4 µg/mL (≈ 13.4 µM); MIC Range (Enterococcus faecalis): 0.5 to 4 µg/mL; MIC50 [5]: 0.015 µg/mL (≈ 0.0501 µM); MIC90 [5]: 0.03 µg/mL (≈ 0.1 µM); MIC Range [5]: 0.015 to 0.06 µg/mL; MIC (Enterobacter cloacae P99): 0.098 µg/mL (≈ 0.327 µM); MIC (Klebsiella cxytoca 1082E): 0.195 µg/mL (≈ 0.651 µM); MIC50 (Citrobacter freundii): 0.12 µg/mL (≈ 0.401 µM); MIC90 (Citrobacter freundii): 0.5 µg/mL (≈ 1.67 µM); MIC Range (Citrobacter freundii): 0.06 to 0.5 µg/mL; MIC [6]: 0.004 µg/mL (≈ 0.0134 µM); MIC50 (Bacteroides fragilis): 0.25 µg/mL (≈ 0.835 µM); MIC90 (Bacteroides fragilis): 0.5 µg/mL (≈ 1.67 µM); MIC Range (Bacteroides fragilis): 0.06 to 2 µg/mL; MIC (Escherichia coli DC 0): 0.195 µg/mL (≈ 0.651 µM); MIC [7]: < 0.002 µg/mL; MIC50 (Streptococcus pneumoniae): 0.12 µg/mL (≈ 0.401 µM); MIC90 (Streptococcus pneumoniae): 0.25 µg/mL (≈ 0.835 µM); MIC Range (Streptococcus pneumoniae): 8 to 500 ng/mL; MIC50 (Escherichia coli): 0.12 µg/mL (≈ 0.401 µM); MIC90 (Escherichia coli): 0.5 µg/mL (≈ 1.67 µM); MIC Range (Escherichia coli): 0.06 to 1 µg/mL; MIC (Escherichia coli 078): 0.098 µg/mL (≈ 0.327 µM); MIC [8]: 0.781 µg/mL (≈ 2.61 µM); MIC (Salmonella typhimurium): 0.781 µg/mL (≈ 2.61 µM); MIC (Escherichia coli TEM): 0.098 µg/mL (≈ 0.327 µM); MIC50 (Streptococcus agalactiae): 8 ng/mL (≈ 0.0267 µM); MIC90 (Streptococcus agalactiae): 0.015 µg/mL (≈ 0.0501 µM); MIC Range (Streptococcus agalactiae): 8 to 15 ng/mL; MIC50 (Enterobacter cloacae): 0.25 µg/mL (≈ 0.835 µM); MIC90 (Enterobacter cloacae): 1 µg/mL (≈ 3.34 µM); MIC Range (Enterobacter cloacae): 0.12 to 1 µg/mL
